Data from US20240325394A1, “SALT AND CRYSTAL FORM OF NITROGEN-CONTAINING HETEROCYCLIC DERIVATIVE, PREPARATION METHOD THEREFOR AND APPLICATION THEREOF” (SHANGHAI HANSOH BIOMEDICAL CO., LTD., priority 2020, published 2024).

Key:
hERG potassium channel = target: T1, hERG potassium channel (Homo sapiens, UniProt Q12809); assay: hERG potassium channel inhibitory activity test (Qpatch, CHO-hERG cells); format: cell-based; conditions: highest test concentration 40 μM, read-out: hERG (μM), inhibition at multiple concentrations on hERG current
T1 construct: expressed in transfected cells; host or cells: CHO-hERG cells
T1 sequence (Q12809 whole entry): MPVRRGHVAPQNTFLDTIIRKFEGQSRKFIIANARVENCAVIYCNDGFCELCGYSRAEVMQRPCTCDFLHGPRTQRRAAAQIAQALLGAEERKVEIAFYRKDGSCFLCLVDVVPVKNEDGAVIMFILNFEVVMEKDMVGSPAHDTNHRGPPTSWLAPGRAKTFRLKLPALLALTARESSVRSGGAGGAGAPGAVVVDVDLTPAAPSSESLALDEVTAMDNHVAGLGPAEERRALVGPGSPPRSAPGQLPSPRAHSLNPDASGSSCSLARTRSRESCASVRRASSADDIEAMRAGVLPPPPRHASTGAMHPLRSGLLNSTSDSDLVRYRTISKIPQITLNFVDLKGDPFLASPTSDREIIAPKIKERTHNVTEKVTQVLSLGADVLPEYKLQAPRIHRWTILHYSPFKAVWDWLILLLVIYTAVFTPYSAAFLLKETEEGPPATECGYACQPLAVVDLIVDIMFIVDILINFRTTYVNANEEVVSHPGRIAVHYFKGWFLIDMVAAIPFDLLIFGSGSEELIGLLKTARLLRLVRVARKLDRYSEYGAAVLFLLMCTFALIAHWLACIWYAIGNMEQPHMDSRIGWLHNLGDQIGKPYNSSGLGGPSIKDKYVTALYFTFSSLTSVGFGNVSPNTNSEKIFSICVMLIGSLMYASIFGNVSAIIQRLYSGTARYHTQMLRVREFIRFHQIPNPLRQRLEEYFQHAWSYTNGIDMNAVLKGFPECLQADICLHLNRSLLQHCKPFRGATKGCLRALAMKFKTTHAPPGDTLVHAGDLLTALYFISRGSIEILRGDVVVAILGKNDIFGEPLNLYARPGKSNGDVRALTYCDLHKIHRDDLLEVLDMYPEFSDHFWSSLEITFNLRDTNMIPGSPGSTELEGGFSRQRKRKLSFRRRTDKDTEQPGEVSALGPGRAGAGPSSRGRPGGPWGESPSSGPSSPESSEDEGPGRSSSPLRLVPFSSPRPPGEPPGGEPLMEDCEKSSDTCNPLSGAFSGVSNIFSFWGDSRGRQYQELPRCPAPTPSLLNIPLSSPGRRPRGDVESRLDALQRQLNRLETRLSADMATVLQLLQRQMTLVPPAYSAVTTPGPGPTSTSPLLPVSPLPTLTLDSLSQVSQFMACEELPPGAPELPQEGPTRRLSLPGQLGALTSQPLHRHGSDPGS
Description: 7.1.1 CHO-hERG cells were cultured in a 175 cm^2 flask, when the cell density reached 60-80%, the culture medium was removed, the cells were washed with 7 mL PBS, and then digested with 3 mL Detachin. 7.1.2 After complete digestion, 7 mL culture medium was added to neutralize, then the mixture was centrifuged, the supernatant was aspirated, and then 5 mL culture medium was added to re-suspend, ensuring 2-5×10^6/mL of cell density.
The process of single cell high impedance sealing and whole cell mode formation were all automatically completed by Qpatch instrument, after obtaining the whole cell recording mode, the cells were clamped at −80 mV, before giving a 5-second +40 mV depolarization stimulus, a 50 millisecond −50 mV prevoltage was given first, and then repolarized to −50 mV for 5 seconds, then returned to −80 mV. This voltage stimulation was applied every 15 seconds and recorded for 2 minutes before giving extracellular fluid recordings for 5 minutes, and then the administration process was started, the compound concentration was given from the lowest test concentration, each test concentration was given for 2.5 minutes, and the positive control compound 3 μM of Cisapride was given after all concentrations were continuously given. At least 3 cells (n≥3) were tested at each concentration.
7.4.1 20 mM of compound mother liquor was diluted with extracellular fluid, 5 μL of 20 mM compound mother liquor was added into 2495 μL of extracellular fluid and diluted 500-fold to 40 μM, and then the final concentration to be tested was obtained by sequential 3-fold serial dilutions in extracellular solution containing 0.2% DMSO. 7.4.2 The highest test concentration was 40 μM, in a total of 6 concentrations of 40, 13.33, 4.44, 1.48, 0.49 and 0.16 μM respectively. 7.4.3 The content of DMSO in the final test concentration was not more than 0.2%, and this concentration of DMSO had no effect on hERG potassium channel.
The experimental data were analyzed by XLFit software. […]

CYP450 2D6 = target: T2, CYP450 2D6 (Homo sapiens, UniProt P10635); assay: CYP enzyme single point inhibition test, human liver microsomes, 2D6; format: in vitro ADME; conditions: single point method
T2 construct: from tissue; host or cells: human liver microsomes
T2 sequence (P10635 whole entry): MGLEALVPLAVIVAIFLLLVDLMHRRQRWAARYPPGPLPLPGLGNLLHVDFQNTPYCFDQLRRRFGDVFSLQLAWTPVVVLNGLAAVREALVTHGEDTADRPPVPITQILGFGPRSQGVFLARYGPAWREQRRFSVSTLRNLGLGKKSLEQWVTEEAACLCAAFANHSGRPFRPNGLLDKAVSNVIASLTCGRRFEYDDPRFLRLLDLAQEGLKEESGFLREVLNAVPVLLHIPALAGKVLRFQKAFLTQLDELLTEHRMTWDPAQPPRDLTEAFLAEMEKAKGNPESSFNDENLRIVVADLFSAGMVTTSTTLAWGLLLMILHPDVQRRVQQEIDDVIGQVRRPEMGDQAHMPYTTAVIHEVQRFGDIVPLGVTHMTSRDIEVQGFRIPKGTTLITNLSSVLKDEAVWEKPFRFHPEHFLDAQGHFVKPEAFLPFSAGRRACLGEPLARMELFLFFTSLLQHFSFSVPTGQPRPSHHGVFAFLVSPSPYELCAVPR
Description: Using human liver microsomal incubation system, the inhibition of CYP450 enzyme subtypes by compounds was rapidly predicted by single point method.
2.5 mM NADPH: 100 mM phosphate buffer was added to 4.165 mg of NADPH (reduced nicotinamide adenine dinucleotide phosphate) to 2 mL. 0.25 mg/mL microsome: 4 mL of 100 mM phosphate buffer was added to 50 μL of 20 mg/mL microsome and mixed well.
The embodiment compound to be tested was weighed and diluted to 10 mM with DMSO and then diluted to 100 µM with 100 mM phosphate buffer.
• 1. In a 96-well plate, 40 μL of liver microsomes, 10 μL of substrate, 10 μL of compound to be tested were pre-incubated for 3 min. • 2. 40 μL of NADPH was added. • 3. 300 μL of acetonitrile termination solution containing internal standard was added at 20 min. • 4. Centrifugal injection.

[1] = Pharmacokinetics in mice (plasma) after oral administration; format: in vivo, Balb/c mice
Description: 5 g of Hydroxyethyl cellulose (HEC, CMC-Na, viscosity: 800-1200 Cps) was weighed, dissolved in 1000 mL of purified water, and 10 g of Tween 80 was added. The mixture was mixed well to form a clear solution.
The compounds of the embodiments were weighed and added into 4-mL glass bottles, respectively, 2.4 mL of the solution was added, and ultrasound was performed for 10 minutes to obtain a colorless clear solution with a concentration of 1 mg/mL.
Balb/C mice, males; PO, after overnight fasting, respectively, at a dose of 10 mg/kg, administered in a volume of 10 mL/kg.
Blood samples were collected before administration and 0.083 h, 0.25 h, 0.5 h, 1 h, 2 h, 4 h, 6 h and 8 h after administration, the blood was placed in EDTA-2K tube, centrifuged at 4° C. 6000 rpm for 6 min to separate plasma, and stored at −80° C.; food was consumed 4 hours after drug administration.

[2] = Plasma stability, human plasma; format: in vitro ADME
Method in brief: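 Compound from a 10 μM working solution in 100 mM phosphate buffer was incubated at 37°C in anticoagulated plasma from each species, with propantheline as positive control. Aliquots taken at 0, 15, 30, 60, 90 and 120 min were quenched in acetonitrile with internal standard. Remaining compound was quantified by LC-MS/MS (positive ESI, MRM).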

[3] = Balb/c mice, PO 10 mg/kg, plasma

Row | Compound | IC50 (hERG potassium channel) [µM] | IC50 (CYP450 2D6) [µM] | half-life ([1]; male, Balb/c, mouse, in vivo, po, 10 mg/kg) [min] | Residual rate (%) 0 min ([2]; human, 0.5 μM) [%] | Residual rate (%) 15 min ([2]; human, 0.5 μM) [%] | Residual rate (%) 30 min ([2]; human, 0.5 μM) [%] | Residual rate (%) 60 min ([2]; human, 0.5 μM) [%] | Residual rate (%) 120 min ([2]; human, 0.5 μM) [%] | AUC0-∞ [1, 3] [µg·h/mL] | Cmax [1, 3] [µg/mL] | MRT [1, 3] [min] | T1/2 [1, 3] [min] | Tmax [1, 3] [min] | Residual rate (%) 0 min ([2]; human plasma, 37° C.) [%] | Residual rate (%) 15 min ([2]; human plasma, 37° C.) [%] | Residual rate (%) 30 min ([2]; human plasma, 37° C.) [%] | Residual rate (%) 60 min ([2]; human plasma, 37° C.) [%] | Residual rate (%) 120 min ([2]; human plasma, 37° C.) [%]
1 | C=CC(=O)N1C[C@H](C)N(c2nc(=O)n(-c3c(SC)ccnc3C(C)C)c3nc(-c4c(N)ccc(Cl)c4F)c(Cl)cc23)C[C@H]1C (atropisomer, axis not shown) [Embodiment 13-1, P-4-((2S,5R)-4-Acryloyl-2,5-dimethylpiperazin-1-yl)-7-(6-amino-3-chloro-2-fluorophenyl)-6-chloro-1-(2-isopropyl-4-(methylthio)pyridin-3-yl)pyrido[2,3-d]pyrimidin-2(1H)-one] | > 30 | 21.2 | 60 | 100.00 | 102.34 | 100.28 | 90.27 | 87.22 | – | – | – | – | – | – | – | – | – | –
2 | P-4-((2S,5R)-4-acryloyl-2,5-dimethylpiperazin-1-yl)-6-fluoro-7-(2-fluoro-6-hydroxyphenyl)-1-(2-isopropyl-4-(methylthio)pyridin-3-yl)pyrido[2,3-d]pyrimidin-2(1H)-one [Embodiment 2-1] | > 30 | > 100 | – | – | – | – | – | – | 1.373 | 1.823 | 42 | 36 | 15 | 100.00 | 97.39 | 98.79 | 94.50 | 87.91
